From ChEMBL document CHEMBL1201862, “PubChem BioAssay data set” (2004)
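Grown in 96-well plates, cells were treated for 48 hours with each compound at five concentrations. Insufficient inhibition: endpoint recorded as highest concentration tested. GI50 = concentration required for 50% inhibition of growth.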 The source made the active and inactive calls. No stated cut-off is given here; in the data, active = GI50 up to about 1.1 µM and inactive = higher.

Assays:
Assay in all cases: NCI anticancer screen, dose series, 48 h
CAKI-1 = test system: CAKI-1
CCRF-CEM = test system: CCRF-CEM
COLO 205 = test system: COLO 205
DLD-1 = test system: DLD-1
HCC 2998 = test system: HCC 2998
HCT-15 = test system: HCT-15
HL-60 = test system: HL-60
HOP-62 = test system: HOP-62
Hs-578T = test system: Hs-578T
KM-20L2 = test system: KM-20L2
MCF7 = test system: MCF7
MDA-MB-231 = test system: MDA-MB-231
MDA-N = test system: MDA-N
NCI-H460 = test system: NCI-H460
OVCAR-5 = test system: OVCAR-5
SF-539 = test system: SF-539
SN12C = test system: SN12C
SR = test system: SR
U-251 = test system: U-251
UO-31 = test system: UO-31

Row | Structure (SMILES) | GI50 (CAKI-1) | GI50 (CCRF-CEM) | GI50 (COLO 205) | GI50 (DLD-1) | GI50 (HCC 2998) | GI50 (HCT-15) | GI50 (HL-60) | GI50 (HOP-62) | GI50 (Hs-578T) | GI50 (KM-20L2) | GI50 (MCF7) | GI50 (MDA-MB-231) | GI50 (MDA-N) | GI50 (NCI-H460) | GI50 (OVCAR-5) | GI50 (SF-539) | GI50 (SN12C) | GI50 (SR) | GI50 (U-251) | GI50 (UO-31)
1 | COC(COC(N)=O)C1=C(N2CC2)C(=O)C(C)=C(N2CC2)C1=O (configuration not stated) [CARBOQUONE] | < 0.0119 µM (active) | 0.0355 µM (active) | 0.113 µM (active) | 0.113 µM (active) | 0.131 µM (active) | 0.0594 µM | < 0.0114 µM (active) | < 0.0154 µM (active) | 0.218 µM (active) | 0.0608 µM (active) | < 0.01 µM (active) | 0.292 µM (active) | 0.108 µM (active) | < 0.01 µM (active) | 0.106 µM (active) | < 0.0198 µM (active) | < 0.0266 µM (active) | < 0.0221 µM (active) | 0.0366 µM (active) | 0.0307 µM (active)
2 | C/N=N/N(C)C(=O)NC | > 100 µM (inactive) | > 100 µM (inactive) | > 100 µM (inactive) | > 100 µM (inactive) | > 100 µM (inactive) | > 100 µM | > 100 µM (inactive) | > 100 µM (inactive) | – | > 100 µM (inactive) | – | – | – | > 100 µM (inactive) | > 100 µM (inactive) | > 100 µM (inactive) | > 100 µM (inactive) | > 100 µM (inactive) | > 100 µM (inactive) | > 100 µM (inactive)
3 | CC(NC(=O)/C(C#N)=C/c1ccc2[nH]ccc2c1)c1ccccc1 (configuration not stated) | 29.3 µM (inactive) | 17.5 µM (inactive) | 17.1 µM (inactive) | 19.1 µM (inactive) | 19.8 µM (inactive) | 12.5 µM | 18.7 µM (inactive) | 18.2 µM (inactive) | 31.6 µM (inactive) | 18.6 µM (inactive) | 20.9 µM (inactive) | – | 16.2 µM (inactive) | 18.4 µM (inactive) | 17.5 µM (inactive) | 19.8 µM (inactive) | 18.7 µM (inactive) | 24.2 µM (inactive) | 15.9 µM (inactive) | 14.7 µM (inactive)
4 | CCCCC/C=C1\CCC(CN2CCOCC2)C1=O (configuration not stated) | 5.28 µM (inactive) | 2.9 µM (inactive) | 3.67 µM (inactive) | 5.94 µM (inactive) | 12.5 µM (inactive) | 5.32 µM | 2.26 µM (inactive) | 23.1 µM (inactive) | 4.25 µM (inactive) | 13.8 µM (inactive) | 1.6 µM (inactive) | 4.7 µM (inactive) | 8.24 µM (inactive) | 22.1 µM (inactive) | 18.6 µM (inactive) | 14.8 µM (inactive) | 15.2 µM (inactive) | 3.52 µM (inactive) | 10.8 µM (inactive) | 12.4 µM (inactive)
5 | N=C(N)NCCCS(=O)(=O)Nc1ccc(Nc2c3ccccc3nc3cc([N+](=O)[O-])ccc23)cc1 | 40.8 µM (inactive) | 12.6 µM (inactive) | 14.5 µM (inactive) | 30.1 µM (inactive) | 14.7 µM (inactive) | > 85.9 µM | 22.3 µM (inactive) | 14.5 µM (inactive) | 12.5 µM (inactive) | 23.9 µM (inactive) | 2.53 µM (inactive) | 35.2 µM (inactive) | 21.3 µM (inactive) | 0.265 µM (active) | 25.4 µM (inactive) | 20.3 µM (inactive) | 4.83 µM (inactive) | 5.42 µM (inactive) | 4.05 µM (inactive) | > 68.4 µM (inactive)
6 | CN(C)CCNc1ccc2nnn3c4ccc(Cl)cc4c(=O)c1c23 | 2.25 µM (inactive) | 4.62 µM (inactive) | 1.18 µM (inactive) | 3.21 µM (inactive) | 8.67 µM (inactive) | 2.16 µM | 4.73 µM (inactive) | 4.18 µM (inactive) | 3.3 µM (inactive) | 2.86 µM (inactive) | 5.01 µM (inactive) | 11.1 µM (inactive) | 3.52 µM (inactive) | 2.48 µM (inactive) | 4.14 µM (inactive) | 4.78 µM (inactive) | 2.36 µM (inactive) | 1.33 µM (inactive) | 1.33 µM (inactive) | 1.56 µM (inactive)
7 | C/C(CN1C(=O)c2ccccc2C1=O)=N\NS(=O)(=O)c1ccc(C)cc1 | > 100 µM (inactive) | > 100 µM (inactive) | > 100 µM (inactive) | > 100 µM (inactive) | > 100 µM (inactive) | > 100 µM | > 100 µM (inactive) | > 100 µM (inactive) | – | > 100 µM (inactive) | – | – | – | > 100 µM (inactive) | > 100 µM (inactive) | > 100 µM (inactive) | > 100 µM (inactive) | > 100 µM (inactive) | > 100 µM (inactive) | > 100 µM (inactive)
8 | Nc1nc(N)c(CCCCc2ccccc2)c(N)n1 | > 100 µM (inactive) | > 100 µM (inactive) | > 100 µM (inactive) | > 100 µM (inactive) | > 100 µM (inactive) | > 100 µM | > 100 µM (inactive) | > 100 µM (inactive) | > 100 µM (inactive) | > 100 µM (inactive) | > 100 µM (inactive) | > 100 µM (inactive) | > 100 µM (inactive) | > 100 µM (inactive) | > 100 µM (inactive) | > 100 µM (inactive) | > 100 µM (inactive) | > 100 µM (inactive) | > 100 µM (inactive) | > 100 µM (inactive)
9 | N[C@H]1C2C3CC4C5CC(C42)C1(c1ccccc1)C53 (some centres not stated) | > 100 µM (inactive) | > 100 µM (inactive) | 81.3 µM (inactive) | > 100 µM (inactive) | 29.7 µM (inactive) | > 100 µM | > 100 µM (inactive) | > 100 µM (inactive) | – | > 100 µM (inactive) | – | – | – | > 100 µM (inactive) | 75 µM (inactive) | > 100 µM (inactive) | > 100 µM (inactive) | > 100 µM (inactive) | > 100 µM (inactive) | > 100 µM (inactive)
